Data: patent US5958983A, “Polyaromatic antiviral compositions” (Pharmacia & Upjohn Company, priority 1998, dated 1999)

What was measured:
HSV-1 = test: Inhibition of HSV-1 viral replication (virus yield reduction assay, Vero cells); assay type: cell-based, herpes simplex virus type-1; settings: 14-16 hours
Method: (§1) Compounds of the formulas II and III of the present invention are evaluated in an assay to measure the inhibition of HSV-1 viral replication in the presence of drug over a 14-16 hour period. The assay is discussed in detail by Pritchard, M. N. et al. "A Microliter Virus Yield Reduction Assay for the Evaluation of Antiviral Compounds Against Human Cytomegalovirus and Herpes Simplex Virus", J. Virol. Meth., Vol. 28, pp 101-106 (1990). Briefly, 80% confluent monolayers of Vero cells in 24 well plates are infected with low multiplicities of HSV-1 (MOI=0.001). After an absorption period of 1 hour at 37° C., the monolayers are rinsed with culture media and aliquots of compounds diluted into tissue culture media are added for 14-16 hours at 37° C. in a CO2 atmosphere. The growth media is removed and 1 ml of fresh media is added to each well and plates are placed at -70° C. After a 1-5 day storage period the plates are rapidly thawed, samples are collected on ice and titrated on fresh Vero cell monolayers. Viral plaques are stained with 0.1% crystal violet in 20% alcohol for 10 minutes and are counted. Data are calculated to reflect the percentage of inhibition at indicated concentration relative to infected, non-drug treated controls.
(§2) In the Tables, the sign "+++" refers to >90% inhibition at the indicated concentration. The sign "++" refers to >50% inhibition at the indicated concentration. The sign "+" refers to <50% inhibition at the indicated concentration. The sign "-" refers that no inhibitory activity is observed at the indicated concentration. A blank cell means the datum is not available.

VZV = test: Inhibition of VZV replication (plaque reduction, HFF cells); assay type: cell-based, varicella zoster virus; settings: five days
Method: Antiviral activity against VZV are evaluated in an assay to measure the reduction of viral replication in the number viral plaques formed over five days of incubation in the presence of compounds of the present invention. Aliquots of VZV are added for 90 minutes to 24 well plates having HFF cells at 80% confluence to yield approximately 25 plaques for media treated wells. The plates are flicked and dilutions of compounds in tissue culture media at 2 time strength are added (0.5 ml per well). Immediately following the addition of drug 0.5 ml of 1.0% agarose is added to the wells and the plates are gently tapped to aid mixing. This final concentration of agarose (0.5%) is […] to solidify at 37° C. and serves as a semi solid overlay medium. Plates are undisturbed for five days. On day 5 the plates are examined microscopically for toxicity and plaques are counted using low power microscopy.
as §2

HSV-2 = test: Inhibition of HSV-2 viral replication (substantially same assay as HSV-1); assay type: cell-based, herpes simplex virus type-2; settings: 14-16 hours
Method: as §1
Compounds of the formulas II and III of the present invention are also evaluated in substantially the same assay as described above to measure the inhibition of HSV-2 viral replication.
as §2

| Compound | % Inhibition Against HSV-1 Viral Replication, 5 μm (HSV-1) | % Inhibition Against HSV-1 Viral Replication, 30 μm (HSV-1) | % Inhibition Against VZV Viral Replication, 2 μm (VZV) | % Inhibition Against HSV-2 Viral Replication, 1 μm (HSV-2) | % Inhibition Against HSV-2 Viral Replication, 10 μm (HSV-2) | % Inhibition Against VZV Viral Replication, 10 μm (VZV; 10 μm) |
| --- | --- | --- | --- | --- | --- | --- |
| S=C(NCCc1ccccc1)Nc1ccc(Oc2ccc(NC(=S)NCCc3ccccc3)cc2)cc1 [Example 15, N,N"-(oxydi-4,1-phenylene)bis[N'-(2-phenylethyl)thiourea]] | + (<50% inhibition at the indicated concentration) | + (<50% inhibition at the indicated concentration) | +++ (>90% inhibition at the indicated concentration) | + (<50% inhibition at the indicated concentration) | + (<50% inhibition at the indicated concentration) | – |
| COc1ccc(NC(=S)Nc2ccc(Cl)cc2)cc1NC(=S)Nc1ccc(Cl)cc1 [Example 6, N,N"-(4-methoxy-1,3-phenylene)bis[N'-(4-chlorophenyl)thiourea]] | - (no inhibitory activity is observed at the indicated concentration) | + (<50% inhibition at the indicated concentration) | – | – | – | – |
| O=S(=O)(c1ccc(OCc2ccc(Cl)cc2)cc1)c1ccc(OCc2ccc(Cl)cc2)cc1 [Example 17, bis(4-chlorobenzyloxy)(sulfonyldi-4,1-phenylene)] | + (<50% inhibition at the indicated concentration) | ++ (>50% inhibition at the indicated concentration) | ++ (>50% inhibition at the indicated concentration) | ++ (>50% inhibition at the indicated concentration) | ++ (>50% inhibition at the indicated concentration) | – |
| O=S(=O)(c1ccc(O)cc1)c1ccc(OCc2ccc(Cl)cc2)cc1 [Example 22, (4-chlorobenzyloxy)hydroxy(sulfonyldi-4,1-phenylene)] | - (no inhibitory activity is observed at the indicated concentration) | ++ (>50% inhibition at the indicated concentration) | – | – | – | – |
| O=S(=O)(c1ccc(OCc2ccncc2)cc1)c1ccc(OCc2ccncc2)cc1 [Example 19, bis [(4-pyridyl)methoxy](sulfonyldi-4,1-phenylene)] | + (<50% inhibition at the indicated concentration) | + (<50% inhibition at the indicated concentration) | – | – | – | – |
| Cc1cccc(NS(=O)(=O)c2ccc(Oc3ccc(S(=O)(=O)Nc4cccc(C)c4)cc3)cc2)c1 [Example 11, bis[N-(3-methylphenyl)aminosulfonyl](oxydi-4,1-phenylene)] | - (no inhibitory activity is observed at the indicated concentration) | ++ (>50% inhibition at the indicated concentration) | – | – | – | – |
| COc1cccc(NS(=O)(=O)c2ccc(Oc3ccc(S(=O)(=O)Nc4cccc(OC)c4)cc3)cc2)c1 [Example 9, bis[N-(3-methoxyphenyl)aminosulfonyl](oxydi-4,1-phenylene)] | + (<50% inhibition at the indicated concentration) | +++ (>90% inhibition at the indicated concentration) | – | – | – | – |
| Cc1ccc(NC(=S)Nc2ccc(Cl)cc2)cc1NC(=S)Nc1ccc(Cl)cc1 [Example 1, N,N"-(4-methyl-1,3-phenylene)bis[N'-(4-chlorophenyl)thiourea]] | - (no inhibitory activity is observed at the indicated concentration) | + (<50% inhibition at the indicated concentration) | – | – | – | – |
| COc1ccc(NC(=O)Nc2ccc(Cl)cc2)cc1NC(=O)Nc1ccc(Cl)cc1 [Example 3, N,N"-(4-methoxy-1,3-phenylene)bis[N'-(4-chlorophenyl)urea]] | + (<50% inhibition at the indicated concentration) | + (<50% inhibition at the indicated concentration) | – | – | – | – |
| COc1ccc(NC(=O)Nc2ccc(C)cc2)cc1NC(=O)Nc1ccc(C)cc1 [Example 4, N,N"-(4-methoxy-1,3-phenylene)bis[N'-(p-tolyl)urea]] | + (<50% inhibition at the indicated concentration) | + (<50% inhibition at the indicated concentration) | – | – | – | – |
| O=S(=O)(c1ccc(OCc2ccc(Br)cc2)cc1)c1ccc(OCc2ccc(Br)cc2)cc1 [Example 18, bis(4-bromobenzyloxy)(sulfonyldi-4,1-phenylene)] | + (<50% inhibition at the indicated concentration) | ++ (>50% inhibition at the indicated concentration) | – | – | – | +++ (>90% inhibition at the indicated concentration) |
| O=C(Nc1ccc(Oc2ccc(NC(=O)c3ccco3)cc2)cc1)c1ccco1 [Example 16, N,N"-(oxydi-4,1-phenylene)bis(2-furancarboxamide)] | + (<50% inhibition at the indicated concentration) | ++ (>50% inhibition at the indicated concentration) | – | – | – | – |
| O=[N+]([O-])c1ccc(COc2ccc(S(=O)(=O)c3ccc(O)cc3)cc2)cc1 [Example 21, hydroxy(4-nitrobenzyloxy)(sulfonyldi-4,1-phenylene)] | - (no inhibitory activity is observed at the indicated concentration) | ++ (>50% inhibition at the indicated concentration) | – | – | – | – |
| N=C(Nc1ccc(Cc2ccc(NC(=N)c3ccccc3)cc2)cc1)c1ccccc1 [Example 13, N,N"-(methylenedi-4,1-phenylene)bis [benzenecarboximidamide]] | + (<50% inhibition at the indicated concentration) | +++ (>90% inhibition at the indicated concentration) | + (<50% inhibition at the indicated concentration) | + (<50% inhibition at the indicated concentration) | +++ (>90% inhibition at the indicated concentration) | – |
| O=S(=O)(c1ccc(OCc2ccc(F)cc2)cc1)c1ccc(OCc2ccc(F)cc2)cc1 [Example 20, bis(4-fluorobenzyloxy)(sulfonyldi-4,1-phenylene)] | + (<50% inhibition at the indicated concentration) | ++ (>50% inhibition at the indicated concentration) | – | – | – | – |
| Cc1ccc(NS(=O)(=O)c2cccc(S(=O)(=O)Nc3ccc(C)cc3)c2)cc1 [Example 10, N,N"-(1,3-phenylene)bis[N-(p-tolyl)aminosulfonyl]] | + (<50% inhibition at the indicated concentration) | ++ (>50% inhibition at the indicated concentration) | – | – | – | – |
